From US20090170940A1 (priority 2007, published 2009)
Where a name gives a salt, the structure may show the parent alone.

Experiments:
humans = conditions: cited from earlier work

Compound | % Eclosion (nematode eggs) [%] | amount that can be fatal (humans) [mL]
CNC(=O)Oc1cccc2c1OC(C)(C)C2 [Furadan, 2,3-dihydro-2,2-dimethyl-7-benzofuranyl methylcarbamate] | 0.05 | 1
CCOC=O [ethyl formate] | 0.05 | 
